Reference: patent US9732044B2, “N-(pyrid-4-yl)amides and N-(pyrimidin-4-yl)amides and their pharmaceutical and cosmetic use” (GALDERMA RESEARCH & DEVELOPMENT, priority 2011, dated 2017)
Where two headings read alike, the source gives them in different places.

How the values were obtained:
androgen receptor (AR) = androgen receptor (AR) (Homo sapiens (Human), UniProt P10275); assay: Androgen receptor transactivation test in PALM cell line (cross curves against methyl trienolone); format: cell-based; conditions: threshold lists, PALM cells
Protocol: This AR inhibiting activity was measured in a transactivation test by the dissociation constants KdR (rest), KdA (active), and Kdapp (apparent).
A compound may be said to be an AR inhibitor if it has a dissociation constant, Kdapp, of less than or equal to 1 μM, and a KdR/KdA ratio of less than or equal to 10 in a transactivation test.
The transactivation test is carried out in the cell line PALM (PC3 androgen receptor Luciferase MMTV), which is a stable transfectant containing the plasmids PMMTV-neo-Luc (reporter gene) and pSG5puro-AR.
In this study, the affinity of each test compound for the 2 states of the receptor (KdR and KdA) is determined together with the apparent Kd (KdApp). This constant depends upon the 2 Kd's (KdR and KdA), but also depends on the initial equilibrium of the receptor between the active state and rest state (L0) and on its expression rate. It is determined by the following formula: 1/KdApp=(L0/(1+L0))×(1/KdR)+(1/(1+L0))×(1/KdA)
In order to determine these constants, “cross curves” of the test compound against a reference agonist, methyl trienolone, are carried out on a 96-well plate. The test compound is used in 10 concentrations and the reference agonist in 7 concentrations.

[1] = system: sebaceous gland of the ear of a Syrian hamster; assay: In vivo animal model with reduction in the size of the sebaceous glands (Syrian hamster ear); conditions: 1 g %/mL solution, topical on ear, daily for 24 days, compared to control (absolute ethanol)
Text: The model of the sebaceous gland of the ear of a Syrian hamster described by Plewig and Luderschmidt in J. Inv. Derm., (1977), pp. 171-176 is a classical tool for the in vivo study of the function of the sebaceous gland. In fact, the inner faces of the ear lobes of the hamster contain a high number of sebaceous glands described as being similar to those of human sebaceous follicles in terms of certain characteristics, including their morphology and response to androgens and anti-androgens. In fact the growth and lipogenesis of the sebaceous glands on the inner face of the ear of Syrian hamsters depend on the androgens. The anti-androgenic activity of test compounds can be easily evaluated by measuring the size of the sebaceous glands. Moreover, this model has been selected to evaluate the efficacy of the antagonists of the receptor to the androgens on the sebaceous gland.
Test compounds were evaluated according to the following protocol: male hamsters aged weeks were treated daily for 24 days on the inner face of the right ear with 30 μL of a solution of the test compound to be evaluated in absolute ethanol. For each test compound, groups were treated with solutions at a range of concentrations (e.g., from 0.01 g %/mL to 3 g %/mL), as well as absolute ethanol used as a control. (A concentration of 3 g %/mL means a concentration of 0.03 g/mL.)
At the end of the study, samples were taken from the treated ears. The skin of the inner face of the ear was separated from the cartilage. Under a binocular magnifying glass, two zones of 4 mm^2 were numbered. The size of the sebaceous glands was measured on the numerical images by manually trimming the glands by means of image analysis software (TINA.20). For each image some twenty glands were measured. The average area of the sebaceous glands was calculated for each treatment group.
A Student t-test for independent groups comparing each dose with vehicle was carried out to compare the average size of the sebaceous glands as a function of the doses applied. When the evolution of the effect is represented graphically as a function of the administered dose of test compound, the curve obtained is sigmoid in shape. In the median part, this sigmoid may be likened to a straight line. The dose corresponding to 50% of the maximum effect corresponds graphically to the point located in the centre of the linear section defined as “effective dose 50”. This DE50 characterises the potency of the test compound.

Sequence of androgen receptor (AR) (P10275 whole entry): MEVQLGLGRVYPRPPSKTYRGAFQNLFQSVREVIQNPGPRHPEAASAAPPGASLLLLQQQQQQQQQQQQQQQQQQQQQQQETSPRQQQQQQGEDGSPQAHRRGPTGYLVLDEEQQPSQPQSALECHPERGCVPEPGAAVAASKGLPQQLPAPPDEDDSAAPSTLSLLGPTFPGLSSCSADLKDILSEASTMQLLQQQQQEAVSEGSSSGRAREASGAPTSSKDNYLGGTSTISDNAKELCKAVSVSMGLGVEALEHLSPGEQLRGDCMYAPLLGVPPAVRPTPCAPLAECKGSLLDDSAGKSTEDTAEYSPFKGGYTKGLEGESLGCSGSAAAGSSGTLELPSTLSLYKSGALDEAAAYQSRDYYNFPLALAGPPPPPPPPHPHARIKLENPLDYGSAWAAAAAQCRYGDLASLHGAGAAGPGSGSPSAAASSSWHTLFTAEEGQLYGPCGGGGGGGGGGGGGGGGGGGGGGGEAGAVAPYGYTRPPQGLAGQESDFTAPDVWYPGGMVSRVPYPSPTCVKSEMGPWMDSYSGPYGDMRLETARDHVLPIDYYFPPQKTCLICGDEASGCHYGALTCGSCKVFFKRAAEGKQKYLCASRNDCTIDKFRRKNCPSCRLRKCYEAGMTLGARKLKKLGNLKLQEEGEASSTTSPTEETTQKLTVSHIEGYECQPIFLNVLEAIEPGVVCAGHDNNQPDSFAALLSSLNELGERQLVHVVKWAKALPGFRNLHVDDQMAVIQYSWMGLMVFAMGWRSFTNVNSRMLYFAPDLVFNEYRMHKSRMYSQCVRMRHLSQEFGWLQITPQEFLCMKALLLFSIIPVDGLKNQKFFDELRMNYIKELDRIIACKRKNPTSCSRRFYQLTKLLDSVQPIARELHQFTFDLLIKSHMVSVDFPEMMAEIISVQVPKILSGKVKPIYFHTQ

| Structure (SMILES) | Kd (androgen receptor (AR); Kdapp) [nM] | Reduction of sebaceous glands (following treatment at 1 g %/mL) [1] [%] | Kd (androgen receptor (AR); read-out: Kdapp) [nM] |
| --- | --- | --- | --- |
| COc1cc(NC(=O)C(O)(C(C)C)C(C)C)cc(Br)n1 [Compound 68, N-(2-Bromo-6-methoxy-pyridin-4-yl)-2-hydroxy-2-isopropyl-3-methyl-butyramide] | ≤ 30 | 57 |  |
| CCCCC(C)(O)C(=O)Nc1cc(Br)nc(OC)c1 (centres unmarked) [Compound 72A, 2-Hydroxy-2-methyl-hexanoic acid (2-bromo-6-methoxy-pyridin-4-yl)-amide] |  | 48 | ≤ 30 |
| CCCCC(C)(O)C(=O)Nc1cc(Br)nc(OC)c1 (centres unmarked) [Compound 72B, 2-Hydroxy-2-methyl-hexanoic acid (2-bromo-6-methoxy-pyridin-4-yl)-amide] |  | 46 | ≤ 100 |
| CCC(O)(C(=O)Nc1cc(Br)nc(OC)c1)C(C)C (centres unmarked) [Compound 74B, N-(2-Bromo-6-methoxy-pyridin-4-yl)-2-ethyl-2-hydroxy-3-methyl-butyramide] |  | 61 | ≤ 30 |
| COc1cc(NC(=O)C(C)(O)C(C)C)cc(Br)n1 (centres unmarked) [Compound 76A, N-(2-Bromo-6-methoxy-pyridin-4-yl)-2-hydroxy-2,3-dimethyl-butyramide] |  | 58 | ≤ 30 |
| CCCC(C)(O)C(=O)Nc1cc(Br)nc(OC)c1 (centres unmarked) [Compound 78B, 2-Hydroxy-2-methyl-pentanoic acid (2-bromo-6-methoxy-pyridin-4-yl)-amide] |  | 50 | ≤ 100 |
| CCCC(O)(C(=O)Nc1cc(Br)nc(OC)c1)C(C)C (centres unmarked) [Compound 79A, 2-Hydroxy-2-isopropyl-pentanoic acid (2-bromo-6-methoxy-pyridin-4-yl)-amide] |  | 48 | ≤ 30 |
